Like-named read-outs stand apart in the source and are kept apart here.
Assays:
[1] = system: senescence-associated β-galactosidase (SA-β-Gal) in skin dermal fibroblasts; assay: Senescence marker SA-β-Gal activity (C12FDG fluorescence) in etoposide-treated skin dermal fibroblasts; settings: FIG. 4
[2] = system: Sirt1 gene; settings: HaCaT cells; β-alanine 500 μM and 10 mM; added twice, 24 h apart; vs 1×PBS control; FIG. 2
Description: (§1) In this example, a transcription of the Sirt1 gene and Sirt3 gene in HaCaT cells, a human epidermal keratinocyte cell line, was measured.
(§2) HaCaT cells were seeded in 6-well plates at 6.0×10^4 cells/well. After 24 hours, β-alanine was added to the cells, and 1×PBS was added to the control cells. After 24 hours of the addition, sample was secondary added, and the medium was aspirated after 24 hours of the second addition of sample. Then, 1×PBS was added at 1 mL/well to wash the cells. RNA extraction from cells, cDNA synthesis, and RT-PCR were performed by the same procedure as in Example 1. The sequences of the used primers of the human sirtuin genes are as follows.

[3] = system: Sirt3 gene; settings: HaCaT cells; β-alanine 500 μM and 10 mM; added twice, 24 h apart; vs 1×PBS control; FIG. 2
Description: as §1, §2

[4] = system: Sirt1 gene; settings: skin dermal cells; culture supernatant of C2C12 cells treated with β-alanine; FIG. 3
Description: (§3) In this example, the activation of the sirtuin gene in skin dermal cells via a substance secreted from muscle cells (C2C12 cells) by β-alanine was examined.
(§4) C2C12 cells were seeded in 5-mL Dish at 2.0×10^5 cells/well, and 48 hours later, the medium was replaced with DMEM medium containing 2% HS to induce differentiation. The culture medium was changed every 2 days to a new medium, and differentiation was induced. Then, the medium was changed every 2 days and β-alanine was added, and the culture supernatant was collected after 8 days of culture. 1×PBS was added to the control cells. After 24 hours of the addition, sample was secondary added, and the culture supernatant was collected after 24 hours of the second addition of sample.
(§5) Specifically, cells were seeded at a concentration of 3.0×10^4 cells/mL in a 5 mL dish.
(§6) RNA extraction from cells, cDNA synthesis, and RT-PCR were performed by the same procedure as in Example 2. The sequences of the used primers of the human sirt6 gene are as follows.

[5] = system: Sirt3 gene; settings: skin dermal cells; culture supernatant of C2C12 cells treated with β-alanine; FIG. 3
Description: as §3, §4, §5, §6

[6] = system: Sirt6 gene; settings: skin dermal cells; culture supernatant of C2C12 cells treated with β-alanine; FIG. 3
Description: as §3, §4, §5, §6

[7] = system: Sirt1 gene; settings: differentiated C2C12 cells; β-alanine 500 μM and 1 mM; added twice, 24 h apart; vs 1×PBS control; FIG. 1
[8] = system: Sirt3 gene; settings: differentiated C2C12 cells; β-alanine 500 μM and 1 mM; added twice, 24 h apart; vs 1×PBS control; FIG. 1

| SMILES | fluorescence intensity of C12FDG (SA-β-Gal activity) ([1]; dermal fibroblasts, etoposide 50 μM for 30 minutes, vs DMSO control) | expression of Sirt1 [2] | expression of Sirt3 [3] | expression of Sirt1 [4] | expression of Sirt3 [5] | expression of Sirt6 [6] | expression of Sirt1 [7] | expression of Sirt3 [8] | fluorescence intensity of C12FDG (SA-β-Gal activity) ([1]; etoposide-treated dermal fibroblasts, culture supernatant of β-alanine-treated C2C12 cells, 48 hours) |
| --- | --- | --- | --- | --- | --- | --- | --- | --- | --- |
| COc1cc([C@@H]2c3cc4c(cc3[C@@H](O[C@@H]3O[C@@H]5CO[C@@H](C)O[C@H]5[C@H](O)[C@H]3O)[C@H]3COC(=O)[C@H]23)OCO4)cc(OC)c1O [etoposide, reference compound] | significantly enhanced |  |  |  |  |  |  |  |  |
| NCCC(=O)O [β-alanine, 3-aminopropanoic acid] |  | enhanced | enhanced | enhanced | enhanced | enhanced | enhanced | enhanced | decreased |

— patent publication US12728107B2, “Sirtuin activator, and method for activating sirtuin” (Yuki Gosei Kogyo Co., Ltd., priority 2020, dated 2026)
